Measured values: PMC10630888, “Nuclear ERK1/2 signaling potentiation enhances neuroprotection and cognition via Importinα1/KPNA2” (EMBO Molecular Medicine, 2023)
Values joined by “and” are separate entries in the source; they are usually repeats but may differ in a detail not shown here. Identical values can stand only once.

How the values were obtained:
[1] = test system: SC-CA1 synapses, CA1 pyramidal neurons; assay: Whole-cell patch clamp, EPSCs at SC-CA1 synapses in hippocampal slices; type: cell-based, rat; settings: peptide 50 μM in intracellular solution, 30–35 min, mean, RB5 n = 12 cells, Scr n = 8 cells, 4 animals
p44 ERK1 and p42 ERK2 = assay: Western blot of pERK1/2 and total ERK1/2 in HEK293 cells; type: cell-based; settings: serum-starved HEK 293 cells, 50 μM, 15 min
Protocol: For Western blot and immunofluorescence analysis, 0.6 × 10^6 HEK293 cells were seeded in 6‐well plates in the presence of DMEM High Glucose GlutaMax (Thermo Fisher Scientific) containing 10% Foetal Bovine Serum (FBS, Thermo Fisher Scientific) and 100 U/ml penicillin/streptomycin (Thermo Fisher Scientific). For Western blot analysis to assess ERK1/2 and phospho‐ERK1/2 levels, cells were serum starved for 24 h and incubated with RB5 50 μM or FBS 20% for 15 min at 37°C. To assess JNK and phospho‐JNK levels, cells were incubated with RB5 50 μM or anisomycin 5 μM for 30 min at 37°C. For immunofluorescence analysis, cells were serum‐starved for 24 h and incubated with 50 μM RB5 or 20% FBS for 15 min at 37°C.
Cells were collected in ice‐cold lysis buffer (20 mM Tris HCl pH 7.5, 150 mM NaCl, 1% Triton, 1 mM EDTA, complete EDTA‐free protease inhibitor cocktail (Roche), 1 mM sodium orthovanadate, 1 mM sodium fluoride, 1 mM b‐glycerophosphate). Protein concentration was determined with the Biorad DC protein assay. Equal amounts of proteins ([…]) were boiled in sample buffer, separated by SDS‐PAGE, and transferred to nitrocellulose membranes (Amersham). […]

p-ERK in dorsal striatum [2] = assay: In vivo time course of striatal pERK after RB5; parameters: species or system mouse; settings: mice, acute systemic administration, 20 mg/kg i.p.
Protocol: (§1) For the dose response study, 2‐month‐old CD1 male mice were injected with different doses of RB5 (1, 2.5, 5, 10, and 20 mg/kg, i.p.), whereas the control group was injected with 20 mg/kg (i.p.) of SCR peptide. Mice were perfused 1 h later with 4% PFA. For the time course study, mice were injected i.p. with 20 mg/kg of RB5 and perfused at different time points with 4% PFA (1, 3, 6, and 12 h). The control group was injected i.p. with 20 mg/kg of SCR. Brains were postfixed in 4% PFA for 24 h and cryoprotected overnight in sucrose 30% before immunohistochemistry against phospho‐ERK1/2.
(§2) Immunohistochemistry was performed as described in Papale et al ([2016]). […]
(§3) For in vivo immunohistochemistry experiments, images were acquired from the dorsal striatum using a Leica DM IRB microscope under a 20× objective. The number of p‐ERK, p‐MSK‐1, p‐ELK, p‐MEK‐1, p‐VG K+, c‐Fos, and DARPP‐32 positive cells was counted in 2–3 consecutive sections per mouse, bilaterally and averaged across the sections using the ImageJ software by a blind investigator to the condition. Estimation of nigral cell loss was assessed by quantifying the number of TH‐immunopositive neurons of the SNc in 360 μm‐spaced sections for each animal.

cleaved caspase-3 = assay: Cleaved caspase-3 in SN, MPTP model; type: in vivo, mouse
From the text: In ex‐vivo and in‐vivo immunofluorescence experiments, the number of p‐S6 or p‐AcH3 immunoreactive neurons among NeuN‐positive neurons was counted in 2–3 consecutive striatal sections per mouse in four fields per section. Caspase 3‐positive cells were quantified among NeuN‐positive neurons in each slide and expressed as percentage (ratio between caspase‐3‐positive cells and total NeuN‐positive neurons) for each field acquired through the slide. The number of cells showing mutant Huntingtin inclusions were expressed as a percentage of mutant Huntingtin‐positive cells among DAPI‐positive cells.
1‐methyl‐4‐phenyl‐1,2,3,6‐tetrahydropyridine‐hydrochloride (MPTP‐HCl, Sigma, Italy) was dissolved in saline and administered i.p. once daily at a dose of 20 mg/kg for 4 days. RB5 (20 mg/kg i.p.) was injected daily 30 min before MPTP.

pERK in DG = assay: pERK in dentate gyrus of Tg2576 mice; type: in vivo, mouse; settings: for pERK in dentate gyrus (Fig 5 panel k): individual animals
Protocol: Immunohistochemistry was performed as described in Papale et al ([2016]). Briefly, 1 h after blocking in 5% normal goat serum and 0.1% Triton X‐100 solution, free‐floating sections were incubated overnight at 4°C with one of the following primary antibodies: anti‐phospho‐p44/42 MAP kinase (Thr202/Tyr204) (1:200, Cell Signaling Technology #9101), anti‐phospho–Elk‐1 (Ser383) (1:100, Cell Signaling #9181), anti‐phospho‐Kv4.2 (Thr607)‐R (1:100, Santa Cruz sc22254‐R), anti‐phospho‐MSK‐1 (1:100 Cell Signaling Technology #9595), anti‐phospho‐MEK1/2 (Ser218/222) (1:100, sc‐7995 Santa Cruz Biotechnology), c‐Fos (1:100, sc‐52 Santa Cruz Biotechnology), tyrosine Hydroxylase (monoclonal 1:1,000, Sigma Aldrich, Italy) and anti‐DARPP‐32 (H3) (1:100, Santa Cruz Biotechnology, #sc‐271111) overnight at 4°C. Sections were then incubated with biotinylated goat anti‐rabbit IgG (1:200, Vector Laboratories) or biotinylated goat anti‐mouse (1:200, Vector Laboratories) for 2 h. The classic avidin‐peroxidase complex (ABC, Vector, UK) protocol was applied, using 3,3′‐diaminobenzidine (DAB, Sigma) as a chromogen.
Tg2576 mice were administered with RB5 or Scramble (20 mg/kg i.p.) for either 7 days, for IHC analysis, or with a single injection (20 mg/kg i.p.), for behavioral analysis.

p-ERK in dorsal striatum [3] = assay: In vivo dose response of striatal pERK; parameters: species or system mouse; settings: 1 h after administration, individual mice
Protocol: as §1, §2, §3

Substance | Average EPSC amplitude over last 5 min of recording, normalized to first minute [1] | Average EPSC amplitude over last 5 min of recording, normalized to first minute ([1]; listed as Scr) | p44/p42 protein levels (Western blot) (p44 ERK1 and p42 ERK2) | p44 ERK1 and p42 ERK2 phosphorylation (Western blot) (p44 ERK1 and p42 ERK2) | half-life (suggested by duration of striatal ERK phosphorylation) (p-ERK in dorsal striatum [2]) [h] | Apoptotic cell death (cleaved caspase-3-positive cells) (cleaved caspase-3; MPTP 20 mg/kg i.p. and RB5 20 mg/kg i.p. for 4 days) | cleaved caspase-3 in SN (Fig 5 panel h) (cleaved caspase-3; MPTP model, individual animals) | ERK phosphorylation in dentate gyrus (pERK in DG; Tg2576 mice, 7 months old, 20 mg/kg i.p. for 7 days) | pERK in dentate gyrus (Fig 5 panel k) (pERK in DG; Tg2576 mice) | pERK in dentate gyrus (Fig 5 panel k) (pERK in DG; WT mice) | p-ERK-positive cells in dorsal striatum (p-ERK in dorsal striatum [3]; 10 mg/kg i.p.) | p-ERK-positive cells in dorsal striatum (p-ERK in dorsal striatum [3]; 20 mg/kg i.p.)
SCR: ineffective Scramble version of RB5 containing a TAT sequence (GRKKRRQRRRPPRVGPGVPEGVGVAVFGVKEPGQTGDVGPVGE) [reference compound] | had no effect | 0.9389 |  |  |  |  |  |  |  |  |  | 
GRKKRRQRRRPPQGGGGGEPRRTEGVGPGVPGEVEMVKGQPFDV [RB5, six D-amino acids, acetylated N-terminus] |  |  | without affecting p44/p42 protein levels | sustained a strong p44 ERK1 and p42 ERK2 phosphorylation | 6 to 12 | counteracted apoptotic cell death | 15.9941 and 14.3542 and 22.1236 and 12.1639 and 12.097 and 11.2152 and 20.664 and 29.614 and 13.0618 and 19.582 and 19.4193 and 16.215 and 16.8899 and 24.4755 | restored ERK phosphorylation | 11.21 and 6.88 and 9.13 and 7.17 and 10.84 and 11.62 and 10.66 and 8.7 | 8.18 and 9.67 and 8.87 and 7.48 and 10.41 and 9.92 and 13.01 | significant striatal ERK activation | significant striatal ERK activation
